Measured values reported in patent publication US12097192B2 (Corcept Therapeutics Incorporated, priority 2019, dated 2024).

Columns and labels:
[1] = system: Cushing syndrome patients; settings: patients treated with either mifepristone or metyrapone; cited from earlier work
[2] = system: Cushing syndrome patients; assay: Adverse events with other medical therapies for Cushing syndrome; type: in vivo, human; settings: one patient treated previously with mifepristone

SMILES	drug induced hypokalemia [1]	adverse event on previous therapy [2]
CC(C)(C(=O)c1cccnc1)c1cccnc1 [metyrapone]	commonly seen adverse event	–
CC#C[C@]1(O)CC[C@H]2[C@@H]3CCC4=CC(=O)CCC4=C3[C@@H](c3ccc(N(C)C)cc3)C[C@@]21C [mifepristone]	–	developed endometrial hypertrophy
